Experimental data taken from the NIST ThermoML archive (doi:10.1021/je050460d).
± gives the expanded uncertainty stated by the source.

Experiments:
[1] = refractive index (Na D-line) (dimensionless); conditions: 101.33 kPa, Liquid, Standard Abbe refractometry
[2] = 101.33 kPa, Liquid; for viscosity: Capillary tube (Ostwald / Ubbelohde) method; for mass density: Vibrating tube method
[3] = xn = mol fraction of the nth substance listed; conditions: 101 kPa, Liquid, x1 = 1; for viscosity: Capillary tube (Ostwald / Ubbelohde) method; for mass density: Vibrating tube method

CCCCCCn1cc[n+](C)c1.[Cl-] [1-hexyl-3-methylimidazolium chloride]
refractive index ([1]; 298.15 K): 1.5172 ± 0.001
refractive index ([1]; 303.15 K): 1.5158 ± 0.001
refractive index ([1]; 308.15 K): 1.51437 ± 0.001
refractive index ([1]; 313.15 K): 1.51294 ± 0.001
refractive index ([1]; 318.15 K): 1.51151 ± 0.001
refractive index ([1]; 323.15 K): 1.51009 ± 0.001
refractive index ([1]; 328.15 K): 1.50868 ± 0.001
refractive index ([1]; 333.15 K): 1.50727 ± 0.001
refractive index ([1]; 338.15 K): 1.50586 ± 0.001
refractive index ([1]; 343.15 K): 1.50445 ± 0.001
viscosity ([2]; 298.15 K): 18089 ± 2400 mPa·s
mass density ([2]; 298.15 K): 1039.67 ± 2.7 kg/m3
mass density ([2]; 303.15 K): 1036.81 ± 2.7 kg/m3
mass density ([2]; 308.15 K): 1033.96 ± 2.7 kg/m3
viscosity ([2]; 313.15 K): 3429 ± 330 mPa·s
mass density ([2]; 313.15 K): 1031.13 ± 2.7 kg/m3
mass density ([2]; 318.15 K): 1028.3 ± 2.7 kg/m3
mass density ([2]; 323.15 K): 1025.49 ± 2.7 kg/m3
viscosity ([2]; 328.15 K): 942.1 ± 65 mPa·s
mass density ([2]; 328.15 K): 1022.69 ± 2.7 kg/m3
mass density ([2]; 333.15 K): 1019.89 ± 2.7 kg/m3
mass density ([2]; 338.15 K): 1017.11 ± 2.7 kg/m3
viscosity ([2]; 343.15 K): 339.5 ± 17 mPa·s
mass density ([2]; 343.15 K): 1014.32 ± 2.7 kg/m3

CCCCCCCC[n+]1ccn(C)c1.[Cl-] [1-methyl-3-octylimidazolium chloride]
refractive index ([1]; 298.15 K): 1.50987 ± 0.001
refractive index ([1]; 303.15 K): 1.50838 ± 0.001
refractive index ([1]; 308.15 K): 1.50689 ± 0.001
refractive index ([1]; 313.15 K): 1.50543 ± 0.001
refractive index ([1]; 318.15 K): 1.50396 ± 0.001
refractive index ([1]; 323.15 K): 1.5025 ± 0.001
refractive index ([1]; 328.15 K): 1.50103 ± 0.001
refractive index ([1]; 333.15 K): 1.49956 ± 0.001
refractive index ([1]; 338.15 K): 1.4981 ± 0.001
refractive index ([1]; 343.15 K): 1.49664 ± 0.001
viscosity ([2]; 298.15 K): 20883 ± 2800 mPa·s
mass density ([2]; 298.15 K): 1008.82 ± 2.7 kg/m3
mass density ([2]; 303.15 K): 1005.94 ± 2.6 kg/m3
mass density ([2]; 308.15 K): 1003.06 ± 2.6 kg/m3
viscosity ([2]; 313.15 K): 4066 ± 400 mPa·s
mass density ([2]; 313.15 K): 1000.2 ± 2.6 kg/m3
mass density ([2]; 318.15 K): 997.37 ± 2.6 kg/m3
mass density ([2]; 323.15 K): 994.5 ± 2.6 kg/m3
viscosity ([2]; 328.15 K): 1091 ± 78 mPa·s
mass density ([2]; 328.15 K): 991.67 ± 2.6 kg/m3
mass density ([2]; 333.15 K): 988.85 ± 2.6 kg/m3
mass density ([2]; 338.15 K): 986.04 ± 2.6 kg/m3
viscosity ([2]; 343.15 K): 387.2 ± 20 mPa·s
mass density ([2]; 343.15 K): 983.24 ± 2.6 kg/m3

O [water] + CCCCCCCC[n+]1ccn(C)c1.[Cl-]
viscosity ([3]; 298.15 K): 0.9 ± 0.01 mPa·s
viscosity ([3]; 313.15 K): 0.66 ± 0.01 mPa·s
viscosity ([3]; 328.15 K): 0.52 ± 0.01 mPa·s
mass density ([3]; 328.15 K): 985.68 ± 0.5 kg/m3
viscosity ([3]; 343.15 K): 0.42 ± 0.01 mPa·s
mass density ([3]; 343.15 K): 977.75 ± 0.5 kg/m3

O [water] + CCCCCCn1cc[n+](C)c1.[Cl-]
viscosity ([3]; 298.15 K): 0.895 ± 0.007 mPa·s
viscosity ([3]; 313.15 K): 0.658 ± 0.006 mPa·s
viscosity ([3]; 328.15 K): 0.519 ± 0.005 mPa·s
mass density ([3]; 328.15 K): 985.68 ± 0.5 kg/m3
viscosity ([3]; 343.15 K): 0.419 ± 0.004 mPa·s
mass density ([3]; 343.15 K): 977.75 ± 0.5 kg/m3
